“And” between values parts separate entries of the source, which are not always exact repeats. Equal values may be shown once.
Tested on: WM3248 melanoma cells, 486 antibodies
Assay: Reverse phase protein arrays (RPPA)
Format: cell-based, Human
Settings: 20 uM, single replicates
Excerpt: Pellets were snap frozen in liquid nitrogen and shipped to MD Anderson Cancer Center core RPPA facility for RPPA analysis (Table S5). Three biological replicates for each sample were generated.
Nomenclatures on the RPPA heatmaps: name_of_antibody.species_of_antibody.status_of_antibody. V - antibody validated; C - validation of antibody in progress; Q - antibody nonspecific; E – under evaluation; antibodies raised in M - mouse, G - goat, R - rabbit, or T - rat.

CN(C)c1cccc(Nc2cc(-c3ccccc3)nc(C3CCNCC3)n2)c1 [ARN22089, N1,N1-dimethyl-N3-(6-phenyl-2-(piperidin-4-yl)pyrimidin-4-yl)benzene-1,3-diamine]
RPPA level HSP60.R.V: 1.015 and 0.888 and 1.096 | RPPA level HSP70.R.C: 1.026 and 1.351 and 1.104 | RPPA level Hexokinase.I.R.C: 0.978 and 0.986 | RPPA level Hexokinase.II.R.V: 1.256 and 0.762 and 0.871 | RPPA level Hif.1αR.C: 0.972 and 1.096 and 0.645 | RPPA level Histone.H3.R.V: 1.540 and 13.252 and 0.726 | RPPA level Histone.H3_pS10.R.V: 1.398 and 3.688 and 0.992 | RPPA level IDO.R.C: 0.839 and 1.159 | RPPA level IGF1R_pY1135_Y1136.R.V: 0.898 and 1.026 and 1.052 | RPPA level IGFBP2.R.V: 0.627 and 0.801 and 1.270 | RPPA level IGFBP3.M.V: 0.715 and 1.003 and 1.004 | RPPA level IGFRb.R.C: 1.190 | RPPA level IL.6.R.C: 0.855 and 1.111 and 1.060 | RPPA level IMP3.R.C: 1.052 and 1.022 and 0.974 | RPPA level INPP4b.R.C: 1.077 and 0.833 and 0.806 | RPPA level IR.b.R.C: 0.907 and 1.208 and 1.333 | RPPA level IRF.1.R.V: 0.730 and 0.964 and 1.168 | RPPA level IRF.3.R.V: 0.995 and 0.906 and 0.945 | RPPA level IRS1.R.V: 1.014 and 1.159 and 1.141 | RPPA level IRS2.R.C: 1.278 and 1.343 and 1.011 | RPPA level JAB1.M.C: 0.955 and 0.936 and 1.024 | RPPA level JNK2.R.V: 0.819 and 0.805 and 1.152 | RPPA level JNK_pT183_Y185.R.C: 0.945 and 1.049 and 1.120 | RPPA level Jagged1.R.V: 0.981 and 1.189 | RPPA level Jak2.R.V: 1.014 and 1.017 | RPPA level KAP1.R.V: 1.154 and 0.878 | RPPA level KEAP1.R.V: 1.208 and 0.814 and 0.859 | RPPA level LAD1.R.V: 0.839 and 1.022 and 1.196 | RPPA level LC3A.B.R.C: 1.392 and 1.015 | RPPA level LCN2.R.V: 2.637 and 0.737 and 1.009 | RPPA level LDHA.R.C: 0.867 and 0.798 and 1.272 | RPPA level LRP6_pS1490.R.V: 0.973 | RPPA level Lasu1.R.V: 1.275 and 1.065 and 0.935 | RPPA level Lck.R.V: 1.245 and 1.124 and 1.192 | RPPA level Lyn.R.V: 1.188 and 0.948 | RPPA level MACC1.R.V: 1.006 and 1.026 and 0.991 | RPPA level MAPK_pT202_Y204.R.C: 0.788 and 0.541 and 0.701 | RPPA level MCT4.R.V: 0.646 and 0.854 and 1.188 | RPPA level MDM2_pS166.R.V: 1.371 and 1.241 and 1.078 | RPPA level MEK1.R.V: 0.858 and 3.823 and 2.342 | RPPA level MEK1_pS217_S221.R.V: 0.758 and 1.168 and 1.336 | RPPA level MEK2.R.V: 1.000 and 1.139 | RPPA level MERIT40.R.C: 0.830 and 0.763 | RPPA level MERIT40_pS29.R.V: 0.843 and 1.161 | RPPA level METTL3.R.V: 1.391 and 1.001 | RPPA level MIF.R.C: 1.003 and 0.889 and 0.956 | RPPA level MIG6.R.V: 0.962 and 1.022 and 0.982 | RPPA level MITF.R.V: 1.062 and 1.054 and 0.977 | RPPA level MLH1.M.V: 0.822 and 0.867 and 0.972 | RPPA level MLKL.R.V: 0.744 and 0.811 and 1.046 | RPPA level MMP2.R.V: 1.019 and 0.966 and 0.959 | RPPA level MMP14.R.V: 1.320 and 1.294 and 1.349 | RPPA level MR1.M.C: 0.957 and 1.152 and 0.970 | RPPA level MRAP.R.C: 0.958 and 1.263 and 1.157 | RPPA level MSH2.R.C: 0.876 and 0.877 and 0.987 | RPPA level MSH6.R.C: 1.224 and 1.204 and 1.063 | RPPA level MSI2.R.C: 1.222 and 1.004 | RPPA level MTCO1.M.V: 1.417 and 0.726 | RPPA level MTSS1.M.C: 0.974 and 1.002 and 0.966 | RPPA level Mcl.1.R.V: 0.716 and 0.788 and 1.009 | RPPA level MelanA.R.C: 1.005 | RPPA level Melanoma.gp100.R.C: 0.910 and 0.978 and 1.134 | RPPA level Merlin.R.C: 1.134 and 1.227 and 1.109 | RPPA level Midkine.R.V: 0.990 and 0.926 and 0.994 | RPPA level Mitofusin.1.R.V: 0.874 and 0.829 and 1.152 | RPPA level Mitofusin.2.R.V: 0.751 and 0.836 | RPPA level Mnk1.R.V: 0.933 and 0.905 and 1.031 | RPPA level mTOR.R.V: 0.956 and 0.920 | RPPA level mTOR_pS2448.R.C: 0.845 and 0.920 and 0.976 | RPPA p21.R.C: 1.050 and 0.570 and 0.863 | RPPA p27.Kip1.R.C: 1.342 and 1.132 and 0.997 | RPPA p27_pT157.R.C: 1.309 and 1.207 and 1.127 | RPPA p27_pT198.R.V: 1.003 and 1.297 and 1.169 | RPPA p38.MAPK.R.V: 0.937 and 0.864 and 1.143 | RPPA p38.MAPK._pT180_Y182.R.V: 0.828 and 1.168 and 1.281 | RPPA p38.a.M.V: 0.862 and 0.943 | RPPA p44.42.MAPK.R.V: 1.247 and 0.862 and 0.981 | RPPA p53.R.C: 0.928 and 1.483 and 1.058 | RPPA p70.S6K1.R.V: 1.060 and 0.948 | RPPA p70.S6K_pT389.R.V: 0.797 and 1.020 and 1.171 | RPPA p90RSK_pT573.R.C: 1.285 and 0.748 and 1.009

Reference: PMC9127750, “Structure-based design of CDC42 effector interaction inhibitors for the treatment of cancer” (Cell reports, 2022)
